Assay results taken from patent US10294204B2, “Fluorescence compounds and preparation method thereof” (BioActs Co., Ltd., priority 2016, dated 2019).

Key:
Assay type in all cases: physicochemical
[1] = Test Example 1: absorption and fluorescence intensity with and without the alkylcarboxyaminocyanuric chloride substituent
Method: According to [Chemical Formula 1] disclosed herein, compounds to which a substituent including cyanuric chloride bound with an aminoalkylcarboxylic acid is introduced are prepared and optical properties thereof are compared with each other. Glycine is used as an aminoalkylcarboxylic acid to obtain Compound 1 (Example 1.7) disclosed herein, and the optical properties thereof are compared with those of the compound (Example 1.3) including no alkylcarboxyamino cyanuric chloride substituent introduced thereto.
At the same concentration, the compounds of Example 1.7 and Example 1.3 are determined for absorption wavelength and intensity and the results are shown in FIG. 1A. […] To perform accurate comparison of fluorescence wavelength intensity, the concentration of each of the compounds of Example 1.7 and Example 1.3 is corrected so that they may have the same absorption intensity, and then the fluorescence wavelength and intensity of each compound are determined.

[2] = Test Example 4 (1),(2): fluorescence intensity of free dye versus reference fluorescent dye
Method: (§1) Compound 20 and a reference fluorescent dye (Alexa Fluor 647 NHS ester) are compared with each other in terms of fluorescence intensity. DMF is added to the two types of fluorescent dyes to provide stock solutions and each solution is adjusted to the same concentration of 10 mg/mL. Next, pH 7.4 10 mM phosphate buffered saline (hereinafter, 1×PBS) is used to dilute the solution to a concentration of 19.5 nM and fluorescence is determined under the setting of Excitation 560 nm. The fluorescence determination is carried out by using LS 55 Fluorescence spectrometer (Perkin Elmer).
as §1, with “18” for “20”, “555” for “647”, “552” for “560”

[3] = Test Example 4 (3),(4): relative quantum yield based on Rhodamine 6G; conditions: pH 7.4 1xPBS
Method: (§2) Based on Rhodamine 6G (TCI), relative quantum yield of Compound 20 and that of the reference fluorescent dye (Alexa Fluor 647 NHS ester) are determined. DMF is added to the two types of fluorescent dyes and Rhodamine 6G to 10 mg/mL to provide stock solutions. Next, pH 7.4 1×PBS is used to dilute the solutions to a concentration of 10 μM and absorption and fluorescence are determined. Herein, 1/2 dilution is carried out from a concentration of 10 μM and then absorption and fluorescence are determined 10 times totally up to the sample of 1/512× concentration. The determined values are introduced to the following Mathematical Formula 1 to analyze the relative quantum yield and the results are shown in the following Table 3 and FIG. 6.
[formula] • Q=Quantum Yield • I=Fluorophore • OD=Absorbance • SubscriptR=Rodamine 6G
as §2, with “18” for “20”, “555” for “647”, “to” for “to the following”, “yield. The” for “yield and the results are shown in the”, “4” for “3”, “7 show the relative quantum yield of each dye.” for “6.”

[4] = Test Example 2: fluorescence intensity as a function of concentration in PBS (plate reader), same absorption intensity; design: increment of fluorescence intensity compared to Compound 19: dose or concentration left out as unconfirmed
Method: To determine a change in optical properties when the compound of [Chemical Formula 1] disclosed herein is modified to allow labeling of a biomolecule, an N-succinimidyl group is introduced to each of Compound 9.7 and Compound 10 to obtain Compound 19 and Compound 20, respectively, in the same manner as described hereinabove. Then, fluorescence characteristics are compared at the same absorption wavelength intensity.
Each of Compound 19 and Compound 20 is added to 5 mL of PBS at a concentration of 10 mg/mL at room temperature to provide samples. Next, 1 mL of PBS is added to 2 mL of each sample and the intensity is measured as a function of absorption wavelength. After adjusting the concentration of a sample so that the absorption intensity (Abs at 650 nm) of Compound 19 may be the same as that of Compound 20 from the resultant data, the sample is diluted many times and the fluorescence thereof is determined by using a plate reader (Perkin Elmer).

## CC[N+]1=C(/C=C/C=C2/N(CCCCCC(=O)NNc3nc(Cl)nc(NCC(=O)O)n3)c3ccc(S(=O)(=O)O)cc3C2(C)C)C(C)(C)c2cc(S(=O)(=O)[O-])ccc21 [Compound 1]
[1]; concentration corrected to same absorption intensity, FIG. 1B
  intensity of fluorescence wavelength relative to Example 1.3: approximately two times higher

## CC1(CCCCCC(=O)NCCCNc2nc(Cl)nc(NCCCCCC(=O)ON3C(=O)CCC3=O)n2)C(/C=C/C=C2/N(CCCS(=O)(=O)O)c3ccc(S(=O)(=O)O)cc3C2(C)C)=[N+](CCCS(=O)(=O)O)c2ccc(S(=O)(=O)[O-])cc21 (stereo not drawn) [Compound 18]
[2]; 19.5 nM in 1xPBS pH 7.4, Excitation 552 nm, FIG. 5
  fluorescence intensity versus reference fluorescent dye (Alexa Fluor 555 NHS ester): relatively higher fluorescence intensity
[3]; 552 compound
  Relative quantum yield (%): 13.34%

## CC1(CCCCCC(=O)ON2C(=O)CCC2=O)C(/C=C/C=C/C=C2/N(CCCS(=O)(=O)O)c3ccc(S(=O)(=O)O)cc3C2(C)C)=[N+](CCCS(=O)(=O)[O-])c2ccc(S(=O)(=O)O)cc21 (stereo not drawn) [Compound 19]
[4]; 3 nM in PBS
  Average fluorescence intensity (at 665 nm): 412.0
[4]; 6 nM in PBS
  Average fluorescence intensity (at 665 nm): 810.7
[4]; 12 nM in PBS
  Average fluorescence intensity (at 665 nm): 1673.0
[4]; 25 nM in PBS
  Average fluorescence intensity (at 665 nm): 3336.7
[4]; 49 nM in PBS
  Average fluorescence intensity (at 665 nm): 6483.7
[4]; 98 nM in PBS
  Average fluorescence intensity (at 665 nm): 12523.0
[4]; 196 nM in PBS
  Average fluorescence intensity (at 665 nm): 24679.7
[4]; 393 nM in PBS
  Average fluorescence intensity (at 665 nm): 48611.7
[4]; 785 nM in PBS
  Average fluorescence intensity (at 665 nm): 91308.7
[4]; 1570 nM in PBS
  Average fluorescence intensity (at 665 nm): 160778.3
[4]; 3140 nM in PBS
  Average fluorescence intensity (at 665 nm): 240494.7
[4]; 6280 nM in PBS
  Average fluorescence intensity (at 665 nm): 308345.7

## CC1(CCCCCC(=O)NCCCNc2nc(Cl)nc(NCCCCCC(=O)ON3C(=O)CCC3=O)n2)C(/C=C/C=C/C=C2/N(CCCS(=O)(=O)O)c3ccc(S(=O)(=O)O)cc3C2(C)C)=[N+](CCCS(=O)(=O)[O-])c2ccc(S(=O)(=O)O)cc21 (stereo not drawn) [Compound 20]
[4]; 3 nM in PBS
  Average fluorescence intensity (at 665 nm): 313.3
[4]; 6 nM in PBS
  Average fluorescence intensity (at 665 nm): 721.3
[4]; 12 nM in PBS
  Average fluorescence intensity (at 665 nm): 1454.7
[4]; 25 nM in PBS
  Average fluorescence intensity (at 665 nm): 2994.3
[4]; 49 nM in PBS
  Average fluorescence intensity (at 665 nm): 6693.3
[4]; 98 nM in PBS
  Average fluorescence intensity (at 665 nm): 13859.7
[4]; 196 nM in PBS
  Average fluorescence intensity (at 665 nm): 29396.3
[4]; 393 nM in PBS
  Average fluorescence intensity (at 665 nm): 59756.7
[4]; 785 nM in PBS
  Average fluorescence intensity (at 665 nm): 118049.0
[4]; 1570 nM in PBS
  Average fluorescence intensity (at 665 nm): 209850.3
[4]; 3140 nM in PBS
  Average fluorescence intensity (at 665 nm): 321865.0
[4]; 6280 nM in PBS
  Average fluorescence intensity (at 665 nm): 418428.3
[4]; FIG. 2
  increment of fluorescence intensity compared to Compound 19: about 40%
[2]; 19.5 nM in 1xPBS pH 7.4, Excitation 560 nm, FIG. 4
  fluorescence intensity versus reference fluorescent dye (Alexa Fluor 647 NHS ester): relatively higher fluorescence intensity
[3]; 650 compound
  Relative quantum yield (%): 11.70%

## CC[N+]1=C(/C=C/C=C2/N(CCCCCC(=O)O)c3ccc(S(=O)(=O)O)cc3C2(C)C)C(C)(C)c2cc(S(=O)(=O)[O-])ccc21 [Example 1.3]
[1]; same concentration, Example 1.7 versus Example 1.3, FIG. 1A
  absorption wavelength intensity: slightly higher

## Alexa Fluor 555 NHS ester [reference compound]
[3]; 552 compound
  Relative quantum yield (%): 5.64%

## Alexa Fluor 647 NHS ester [reference compound]
[3]; 650 compound
  Relative quantum yield (%): 7.79%
